Tests used:
Assay type in all cases: in vivo
[1] = test system: Scirpus juncoides; test: Test Example 3 paddy field treatment; details: Table 6, paddy field treatment, active ingredient 1 kg per hectare, 21st day after dropping, index 0-5
Summary of the method: (§1)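 Scoring used a 0–5 scale of herbicidal effect or phytotoxicity, from <10% to ≥90%, taken 21 days after treatment. Treatment was 1 kg a.i./ha as diluted wettable powder dripped onto 4 cm-deep flooded pots sown with the weeds, 10 days after transplanting two-leaf Koshihikari rice.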

[2] = test system: Monochoria vaginalis; test: Test Example 3 paddy field treatment; details: Table 6, paddy field treatment, active ingredient 1 kg per hectare, 21st day after dropping, index 0-5
Summary of the method: as §1

[3] = test system: Echinochloa crusgalli; test: Test Example 3 paddy field treatment; details: Table 6, paddy field treatment, active ingredient 1 kg per hectare, 21st day after dropping, index 0-5
Summary of the method: as §1

[4] = test system: Ammannia multiflora; test: Test Example 3 paddy field treatment; details: Table 6, paddy field treatment, active ingredient 1 kg per hectare, 21st day after dropping, index 0-5
Summary of the method: as §1

[5] = test system: Digitaria adscendens; test: Test Example 1 upland field foliage treatment; details: Table 4, upland field foliage treatment, index 0-5
Summary of the method: (§2)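 Post-emergence foliar spray, 1 kg a.i./ha, wettable powder diluted in water, applied 14 d after sowing in upland soil. Rating 21 d post-application, 0–5 scale: 5 ≥90%, 4 70–<90%, 3 50–<70%, 2 30–<50%, 1 10–<30%, 0 <10% effect or injury.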

[6] = test system: Stellaria media; test: Test Example 1 upland field foliage treatment; details: Table 4, upland field foliage treatment, index 0-5
Summary of the method: as §2

[7] = test system: Setaria viridis; test: Test Example 1 upland field foliage treatment; details: Table 4, upland field foliage treatment, index 0-5
Summary of the method: as §2

[8] = test system: Chenopodium album; test: Test Example 1 upland field foliage treatment; details: Table 4, upland field foliage treatment, index 0-5
Summary of the method: as §2

[9] = test system: Rice (Oryza sativa); test: Test Example 3 paddy field treatment, crop phytotoxicity; details: Table 6, paddy field treatment, transplanted rice, active ingredient 1 kg per hectare, 21st day after dropping, index 0-5
Summary of the method: as §1

[10] = test system: soybean (Glycine max); test: Test Example 1 upland field foliage treatment, crop phytotoxicity; details: Table 4, upland field foliage treatment, index 0-5
Summary of the method: as §2

[11] = test system: wheat (Triticum aestivum); test: as above; details: Table 4, upland field foliage treatment, index 0-5
Summary of the method: as §2

[12] = test system: soybean (Glycine max); test: Test Example 2 upland soil treatment, crop phytotoxicity; details: Table 5, upland soil treatment, index 0-5
Summary of the method: (§3)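 Seeds are sown into upland soil and covered by roughly 1 cm of soil, then the compound, formulated as a wettable powder and diluted with water, is applied uniformly to the soil surface the following day at 1 kg active ingredient per hectare. Herbicidal effect or phytotoxicity is graded 0 to 5 after 21 days.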

[13] = test system: wheat (Triticum aestivum); test: as above; details: Table 5, upland soil treatment, index 0-5
Summary of the method: as §3

[14] = test system: Digitaria adscendens; test: Test Example 2 upland soil treatment; details: Table 5, upland soil treatment, index 0-5
Summary of the method: as §3

[15] = test system: Stellaria media; test: Test Example 2 upland soil treatment; details: Table 5, upland soil treatment, index 0-5
Summary of the method: as §3

[16] = test system: Setaria viridis; test: Test Example 2 upland soil treatment; details: Table 5, upland soil treatment, index 0-5
Summary of the method: as §3

[17] = test system: Chenopodium album; test: Test Example 2 upland soil treatment; details: Table 5, upland soil treatment, index 0-5
Summary of the method: as §3

SMILES: CNC(=O)C(Cn1cc(C)c(-c2cc(C(F)(F)F)ccc2F)n1)=NOC [Compound 86]
- Herbicidal activity SJ [1]: 4 (herbicidal effect of not less than 70% and less than 90%, or phytotoxicity of 70% or more and less than 90%)
- Herbicidal activity MV [2]: 5 (herbicidal effect of not less than 90%, or phytotoxicity of 90% or more)
- Herbicidal activity EC [3]: 5 (herbicidal effect of not less than 90%, or phytotoxicity of 90% or more)
- Herbicidal activity AM [4]: 5 (herbicidal effect of not less than 90%, or phytotoxicity of 90% or more)
- Herbicidal activity DA: Digitaria adscendens [5]: 5 (herbicidal effect of not less than 90%, or phytotoxicity of 90% or more)
- Herbicidal activity SM: Stellaria media [6]: 4 (herbicidal effect of not less than 70% and less than 90%, or phytotoxicity of 70% or more and less than 90%)
- Herbicidal activity SV: Setaria viridis [7]: 3 (herbicidal effect of not less than 50% and less than 70%, or phytotoxicity of 50% or more and less than 70%)
- Herbicidal activity CA: Chenopodium album [8]: 4 (herbicidal effect of not less than 70% and less than 90%, or phytotoxicity of 70% or more and less than 90%)
- Herbicidal activity (phytotoxicity) OS [9]: 0 (herbicidal effect of not less than 0% and less than 10%, or phytotoxicity of 0% or more and less than 10%)
- Herbicidal activity (phytotoxicity) GM: Soybean (Glycine max) [10]: 0 (herbicidal effect of not less than 0% and less than 10%, or phytotoxicity of 0% or more and less than 10%)
- Herbicidal activity (phytotoxicity) TA: Wheat (Triticum aestivum) [11]: 0 (herbicidal effect of not less than 0% and less than 10%, or phytotoxicity of 0% or more and less than 10%)
- Herbicidal activity (phytotoxicity) GM: Soybean (Glycine max) [12]: 1 (herbicidal effect of not less than 10% and less than 30%, or phytotoxicity of 10% or more and less than 30%)
- Herbicidal activity (phytotoxicity) TA: Wheat (Triticum aestivum) [13]: 0 (herbicidal effect of not less than 0% and less than 10%, or phytotoxicity of 0% or more and less than 10%)
- Herbicidal activity DA: Digitaria adscendens [14]: 5 (herbicidal effect of not less than 90%, or phytotoxicity of 90% or more)
- Herbicidal activity SM: Stellaria media [15]: 5 (herbicidal effect of not less than 90%, or phytotoxicity of 90% or more)
- Herbicidal activity SV: Setaria viridis [16]: 4 (herbicidal effect of not less than 70% and less than 90%, or phytotoxicity of 70% or more and less than 90%)
- Herbicidal activity CA: Chenopodium album [17]: 5 (herbicidal effect of not less than 90%, or phytotoxicity of 90% or more)

SMILES: CNC(=O)C(Cn1cc(C)c(-c2cc(F)c(OC)c(F)c2)n1)=NOC [Compound 92]
- Herbicidal activity SJ [1]: 5 (herbicidal effect of not less than 90%, or phytotoxicity of 90% or more)
- Herbicidal activity MV [2]: 5 (herbicidal effect of not less than 90%, or phytotoxicity of 90% or more)
- Herbicidal activity EC [3]: 5 (herbicidal effect of not less than 90%, or phytotoxicity of 90% or more)
- Herbicidal activity AM [4]: 5 (herbicidal effect of not less than 90%, or phytotoxicity of 90% or more)
- Herbicidal activity DA: Digitaria adscendens [5]: 5 (herbicidal effect of not less than 90%, or phytotoxicity of 90% or more)
- Herbicidal activity SM: Stellaria media [6]: 5 (herbicidal effect of not less than 90%, or phytotoxicity of 90% or more)
- Herbicidal activity SV: Setaria viridis [7]: 5 (herbicidal effect of not less than 90%, or phytotoxicity of 90% or more)
- Herbicidal activity CA: Chenopodium album [8]: 5 (herbicidal effect of not less than 90%, or phytotoxicity of 90% or more)
- Herbicidal activity (phytotoxicity) OS [9]: 0 (herbicidal effect of not less than 0% and less than 10%, or phytotoxicity of 0% or more and less than 10%)
- Herbicidal activity (phytotoxicity) GM: Soybean (Glycine max) [10]: 0 (herbicidal effect of not less than 0% and less than 10%, or phytotoxicity of 0% or more and less than 10%)
- Herbicidal activity (phytotoxicity) TA: Wheat (Triticum aestivum) [11]: 0 (herbicidal effect of not less than 0% and less than 10%, or phytotoxicity of 0% or more and less than 10%)
- Herbicidal activity (phytotoxicity) GM: Soybean (Glycine max) [12]: 0 (herbicidal effect of not less than 0% and less than 10%, or phytotoxicity of 0% or more and less than 10%)
- Herbicidal activity (phytotoxicity) TA: Wheat (Triticum aestivum) [13]: 0 (herbicidal effect of not less than 0% and less than 10%, or phytotoxicity of 0% or more and less than 10%)
- Herbicidal activity DA: Digitaria adscendens [14]: 5 (herbicidal effect of not less than 90%, or phytotoxicity of 90% or more)
- Herbicidal activity SM: Stellaria media [15]: 5 (herbicidal effect of not less than 90%, or phytotoxicity of 90% or more)
- Herbicidal activity SV: Setaria viridis [16]: 5 (herbicidal effect of not less than 90%, or phytotoxicity of 90% or more)
- Herbicidal activity CA: Chenopodium album [17]: 5 (herbicidal effect of not less than 90%, or phytotoxicity of 90% or more)

SMILES: CCc1cn(CC(=NOC)C(=O)NC)nc1-c1ccccc1 [Compound 98]
- Herbicidal activity SJ [1]: 4 (herbicidal effect of not less than 70% and less than 90%, or phytotoxicity of 70% or more and less than 90%)
- Herbicidal activity MV [2]: 5 (herbicidal effect of not less than 90%, or phytotoxicity of 90% or more)
- Herbicidal activity EC [3]: 5 (herbicidal effect of not less than 90%, or phytotoxicity of 90% or more)
- Herbicidal activity AM [4]: 4 (herbicidal effect of not less than 70% and less than 90%, or phytotoxicity of 70% or more and less than 90%)
- Herbicidal activity DA: Digitaria adscendens [5]: 4 (herbicidal effect of not less than 70% and less than 90%, or phytotoxicity of 70% or more and less than 90%)
- Herbicidal activity SM: Stellaria media [6]: 4 (herbicidal effect of not less than 70% and less than 90%, or phytotoxicity of 70% or more and less than 90%)
- Herbicidal activity SV: Setaria viridis [7]: 3 (herbicidal effect of not less than 50% and less than 70%, or phytotoxicity of 50% or more and less than 70%)
- Herbicidal activity CA: Chenopodium album [8]: 4 (herbicidal effect of not less than 70% and less than 90%, or phytotoxicity of 70% or more and less than 90%)
- Herbicidal activity (phytotoxicity) OS [9]: 0 (herbicidal effect of not less than 0% and less than 10%, or phytotoxicity of 0% or more and less than 10%)
- Herbicidal activity (phytotoxicity) GM: Soybean (Glycine max) [10]: 0 (herbicidal effect of not less than 0% and less than 10%, or phytotoxicity of 0% or more and less than 10%)
- Herbicidal activity (phytotoxicity) TA: Wheat (Triticum aestivum) [11]: 0 (herbicidal effect of not less than 0% and less than 10%, or phytotoxicity of 0% or more and less than 10%)
- Herbicidal activity (phytotoxicity) GM: Soybean (Glycine max) [12]: 0 (herbicidal effect of not less than 0% and less than 10%, or phytotoxicity of 0% or more and less than 10%)
- Herbicidal activity (phytotoxicity) TA: Wheat (Triticum aestivum) [13]: 0 (herbicidal effect of not less than 0% and less than 10%, or phytotoxicity of 0% or more and less than 10%)
- Herbicidal activity DA: Digitaria adscendens [14]: 4 (herbicidal effect of not less than 70% and less than 90%, or phytotoxicity of 70% or more and less than 90%)
- Herbicidal activity SM: Stellaria media [15]: 5 (herbicidal effect of not less than 90%, or phytotoxicity of 90% or more)
- Herbicidal activity SV: Setaria viridis [16]: 3 (herbicidal effect of not less than 50% and less than 70%, or phytotoxicity of 50% or more and less than 70%)
- Herbicidal activity CA: Chenopodium album [17]: 4 (herbicidal effect of not less than 70% and less than 90%, or phytotoxicity of 70% or more and less than 90%)
